Reference: a melting point compilation (Tetko et al.; mined from patent text by program, amines drawn as free bases though some values may be those of a salt)

| Compound | melting point [°C] |
| --- | --- |
| CCCN1C(=O)N2C[C@@H](Cc3ccccc3)N=C2c2c1nc(SC)n2COC | 110 to 112 |
| COC(=O)C1(C(=O)O)CCc2cc(C3CCCCCC3)ccc21 (configuration not stated) | 140 to 141 |
| CN(C)CCN1C(=O)c2ccc3[nH]c4ccc(N)cc4c3c2C1=O | 217 to 218 |
| O=[N+]([O-])c1ncc(Cl)cc1O | 97 |
| Cc1ccc2c(C3CN4CCC3CC4)c(C)[nH]c2c1 (configuration not stated) | 237 to 238 |
| CC(C)(C)C(=O)C=Cc1ccc(C2OCCO2)cc1 | 79 to 81 |
| CS(=O)(=O)c1ccc(-c2ccccc2Oc2ccccc2)cc1 | 130 to 131 |
| CCCCCCCCC[C@]1(C)OO[C@@H]2C[C@H]1CC(=O)[C@@H]2C | 39 |
| O=C1CCC(C(=O)O)c2cc(Cl)c(C3CCCCC3)cc21 (configuration not stated) | 204 to 205 |
| COc1cccc(S(=O)(=O)Nc2ccc(Cl)nc2I)c1 | 154 |
| COC(=O)C[C@H](CC(=O)O[Si](C)(C)C(C)(C)C)O[Si](C)(C)C(C)(C)C | 44 to 46 |
| O=C(N[C@H](Cc1ccccc1)[C@H](O)C(=O)O)c1ccccc1 | 172 to 173 |
| O=C(CO)Nc1nc(CN2CCC(c3c[nH]c4ccccc34)CC2)cs1 | 185 to 188 |
| CCN(CC)C(=O)c1ccc(C(c2cccc(O)c2)N2CC(C)NCC2C)cc1 (configuration not stated) | 175 to 177 |
| O=[N+]([O-])c1cccc(C2Nn3cc(-c4ccc(-c5ccccc5)cc4)nc3S2)c1 (configuration not stated) | 263 to 265 |
| COc1ccc(S(=O)(=O)C(CCCCc2ccccc2)C(=O)O)cc1OC (configuration not stated) | 114 to 116 |
| CC(C)=C1c2ccccc2-c2ccccc21 | 112 to 113 |
| O=C1CCC2=C(c3ccc(Cl)cc3)c3ccccc3C2N1 (configuration not stated) | 236 to 238 |
| CN(C)C(=O)N(c1ccc(OC(F)(F)F)c(Cl)c1)C(C(=O)O)c1ccc(Cl)cc1 (configuration not stated) | 77 |
| O=c1[nH]c(=O)c2c(N3CCCCC3)cccc2[nH]1 | > 280 |
| COc1ccc(Cn2c(=O)c3ccccc3n(CCCCCCl)c2=O)cc1 | 110 to 111 |
| CCCCCCOc1ccc(CCCCCCCCC(=O)O)cc1 | 79 to 81 |
| O=C(O)c1cccc(-c2nc3cc(N4CCCC4)ccc3o2)c1 | 248 to 250 |

| Compound | melting point [°C] |
| --- | --- |
| COc1ccc(C(=O)NC(=O)Nc2cc3c(cc2F)/C(=C/c2ccc[nH]2)C(=O)N3)cc1 | 290 to 295 |
| Cc1ccc(-c2ccc(C(=O)Nc3ccc4cc(CN5CCCC5)cnc4c3)c(F)c2)cc1 | 173 |
| CC(C)CCN1C(=O)C(NC(=O)Nc2cccc(N(C)C)c2)C(=O)N(CC23CC4CC(CC(C4)C2)C3)c2ccccc21 (configuration not stated) | 226 to 227 |
| FC(F)(F)C1(c2cc(Cl)cc(Cl)c2)CC(c2ccc(-n3cncn3)cc2)=NO1 (configuration not stated) | > 250 |
| COC(=O)CN1CCN(C(=O)OC(C)(C)C)C(Cc2ccc(OCc3ccccc3)cc2)C1=O (configuration not stated) | 84 to 87 |
| CCn1c(=O)n(O)c(=O)c2cc(F)c(N3CCNCC3)cc21 | 206 to 208 |
| CC(C(=O)O)c1ccc2cc(O)ccc2c1 (configuration not stated) | 186 to 188 |
| CNC(=O)ON=CC=NOC(C)=O | 138 |
| Cc1ccc(S(=O)(=O)OCC2COc3ccc4nocc4c3O2)cc1 (configuration not stated) | 109 to 110 |
| CN1CCC2(CCc3cc4ccccc4n3C2)C1 (configuration not stated) | 55 to 58 |
| COc1ccc(-c2c3c(cc4ccc(OCc5ccccc5)cc24)C(=O)NC3=O)cc1 | 208 to 210 |
| Cn1c(CC#N)ccc1C(=O)c1ccccc1Cl | 80 to 85 |
| N#CC1(c2ccc(Cl)cc2)C2CC3CC(C2)CC1C3 (configuration not stated) | 132 to 133 |
| C=CCc1cccc(C[C@H](NC(=O)OC(C)(C)C)[C@H](O)CCl)c1 | 123 to 126 |
| CC(C)(c1ccc(C(O)(C(F)(F)F)C(F)(F)F)cc1)S(=O)(=O)c1ccccc1 | 185 |
| CC(C)(C)OC(=O)c1ncn2c1[C@@H]1CCCN1C(=O)c1ccccc1-2 | 237 to 238 |
| Clc1ccc(OC2CCC3(CCNCC3)CC2)cc1 | 140 to 142 |
| NC(=O)c1cccc(OCCCl)c1 | 125 to 126 |
| COC(=O)c1c(Sc2ccc(Cl)cc2)c2cc(C)ccc2n1C | 110 to 111 |
| CC1(C)Oc2ccc3nc(Cl)ccc3c2C(NCCc2ccccc2)C1O (configuration not stated) | 141 to 143 |
| CC(CN1CC=C(c2cccs2)CC1)N(C(=O)C1CC=CCC1)c1ccccn1 (configuration not stated) | 92 to 96 |
| CC1OCC(C)n2c1nc1c(N)nc3ccccc3c12 (configuration not stated) | 218 to 223 |
| Cn1cc(C(=O)O)c(=O)c2cc3cc(F)c(N4CCNC(c5ccccc5)C4)cc3nc21 (racemic) | 265 |

The next lines start with the values.

| melting point [°C] | Compound |
| --- | --- |
| 71 | CCOC(=O)c1cc(-c2ccc(Cl)cc2)cnc1C |
| 250 to 252 | Cc1nc(-n2ccc(O)cc2=O)sc1C(=O)NCc1cccc(F)c1 |
| 166 to 167 | N#Cc1cc(Cn2cncn2)cc(-c2ccc(OS(N)(=O)=O)cc2)c1 |
| 119 to 122 | CCOCCn1c(CN2CCCN(C)CC2)nc2ccccc21 |
| 123 to 126 | COc1cc2c(cc1O)C(Cc1cc(Cl)ccc1[N+](=O)[O-])N(C)CC2 (configuration not stated) |
| 275 | CCN(CC)c1ccc(-c2cn(-c3ccc(C4=C(C#N)C(=C(C#N)C#N)OC4(C)C)cc3)nn2)cc1 |
| 136 | CCOC(=O)c1c(CCc2ccc(OC)cc2)nc2c(c1-c1ccc(C(=O)NCc3ccco3)cc1)C(=O)N1CCC[C@H]21 |
| 178 to 179 | Cc1oc(-c2ccccc2)nc1COc1ccc(COc2ccc3ccccc3c2CC#N)cc1 |
| 185 to 186 | CC(C)(C)OC(=O)c1cccc(-c2nc(=O)c3ccccc3s2)n1 |
| 137 to 138 | ON=C1CCC(O)(c2ccccc2Cc2ccccc2)CC1 (configuration not stated) |
| 187 to 189 | N#Cc1ccc(OCCCCOc2ccc(-c3cc4ccc(C#N)cc4o3)cc2)cc1 |
| 130 to 131 | COC(=O)[C@@H](Cc1ccccc1)NC(=O)[C@@H](Cc1c[nH]c2ccccc12)NC(=O)OCc1ccccc1 |
| 270 | COc1ccc(-c2cc3oc(=O)c4ccccc4c3nn2)cc1 |
| 101 to 104 | CCCc1c(OCCCCCOc2ccc(CCCCC(=O)O)cc2CCC(=O)O)ccc2c1OCCC2=O |
| 260 | CCCC1=C(C#N)C(c2ccccc2Cl)c2c(n[nH]c2C)N1 (configuration not stated) |
| 95 to 96 | COC(=O)C1=C(N)CCC1 |
| 240 to 241 | Nc1nc(-c2ccc(CNC(=O)c3cccnc3)s2)cs1 |
| 115 to 117 | C(=C\c1nc(COc2ccc(CCCn3cnc4ccccc43)cc2)co1)/c1ccccc1 |
| 148 to 150 | COc1ccc2cc(C3CCN(CC(O)COc4ccccc4C=C4CCOC4=O)CC3)ccc2c1 (configuration not stated) |

| melting point [°C] | Compound |
| --- | --- |
| 142 to 146 | Nc1sc2c(c1C(=O)c1ccc(Cl)cc1)CCSC2 |
| 213 to 215 | CN(c1ccc(S(C)(=O)=O)cc1)S(=O)(=O)c1cccc(NC(=O)c2ccc(S(C)(=O)=O)cc2)c1 |
| 98 to 99 | CNCCC(O)(COc1ccccc1)c1ccccc1 (configuration not stated) |
| 68 to 72 | CC(C)CCC(O)C(CC1CCCCC1)NC(=O)C(Cc1c[nH]cn1)N(C)C(=O)C(Cc1ccccc1)OC(=O)N(C)CCN(C)C(=O)C(C)C (configuration not stated) |
| 169 to 171 | CNC(=O)COc1ccc(C(=O)CN2CCN(c3ccncc3)CC2)cc1 |
| 84.5 to 85.5 | CC(C)[C@H](NC(=O)Oc1ccccc1)C(=O)O |
| 128 to 132 | CC(=O)N[C@@H](Cc1ccc(-c2cc3ccccc3c3ccccc23)cc1)C(=O)O |
| 91 to 93 | CCCC(=O)NCCc1c[nH]c2ccc3c(c12)CCCO3 |
| 83.5 | CCCCC[C@H]1CC[C@H](c2cnc(C#N)nc2)CC1 |
| 151 to 153 | CCOc1ccc(CN2C(=O)SC(CCCC#Cc3ccc(Cl)cc3)(S(=O)(=O)c3ccc(C)cc3)C2=O)c(OCC)c1 (configuration not stated) |
| 30 | N#Cc1ccc([C@H]2CC[C@H](CCC=O)CC2)cc1 |
| > 300 | CC(=O)NCc1cc(Br)cc2[nH]c(=O)c(=O)[nH]c12 |
| 179 | CC(OCc1cc2nc(Cl)ccc2n1S(=O)(=O)c1ccc2ncsc2c1)C(=O)O (configuration not stated) |
| 75 to 77 | CCCCN1C(=O)c2cccc3c(SC)ccc1c23 |
| 146 to 147 | CCCn1c(=O)cc(Cl)n(Cc2ccc(-c3ccccc3C#N)cc2)c1=O |
| 62 to 63 | COC(=O)C(C)(C)Oc1ccc(C(C)=O)cc1 |
| 69 to 70 | CCC(O)(c1ccc(OCCN(C)C)cc1)c1cccc(C(F)(F)F)c1 (configuration not stated) |
| > 250 | CCc1nn2c(N3CCN(C)CC3)cc(N3CCOCC3)nc2c1S(=O)(=O)c1ccccc1 |
| 92 to 92.5 | COCCOc1ccc(CCCC2OCCO2)c(Oc2ncc(C(F)(F)F)cc2Cl)c1 |

| melting point [°C] | Compound |
| --- | --- |
| 200 to 202 | SC1=NC2(CO1)COC(S)=N2 |
| 63 to 65 | O=C(NC(CCO)c1ccccc1Br)c1c(F)cccc1F (configuration not stated) |
| 73 to 74.8 | CCCN(C)CCCCC1CCN(S(=O)(=O)c2ccc(C(F)(F)F)cc2)CC1 |
| 115 | O=C1CCCCCN1C(=O)N1CCCCCC1=O |
| 158 to 159 | COc1cc(Nc2nccc(C(=O)Nc3ccccc3)n2)cc(OC)c1OC |
| 132 to 133 | CS(=O)(=O)c1ccccc1SCc1ccccc1 |
| 182 to 184 | CCN1CCN(Cc2cc(-c3ccc4c(Nc5ccc(Cl)cc5Cl)c(C#N)cnc4c3)cs2)CC1 |
| 118 to 121 | CC1C(=O)Oc2cc(N3CCOCC3)ccc21 (configuration not stated) |
| 163 to 164 | COC(=O)c1c(N(C)C(C)=O)cc(C)cc1N(C)C(C)=O |
| 121 to 122 | c1ccc(Cn2c3ccccc3c3ccccc32)cc1 |
| 211 to 212 | C=CCNc1nc(NCCC)c2cc([N+](=O)[O-])ccc2n1 |
| 108 to 110 | CCOC(=O)CNC(=O)c1cc(Cl)ccc1N |
| 116 to 120 | COc1ccc(N2CCN(c3ccc(OC(F)(F)F)cc3)C(=O)C2)c(-c2ccc(N(C)C)cc2)n1 |
| 123 to 124 | CCCNC(=O)N(Cc1ccccc1)NC(=O)OC(C)(C)C |
| 118 to 120 | CNC(=O)c1ccc(OCC(O)CNC(C)C)nc1 (configuration not stated) |
| 212 to 215 | Cc1nc(N2CCN(CC(C)C)C2=O)sc1C(N)=O |
| 81 to 83 | COc1ccc(CCN2CCC(NC(=O)C34CC5CC(CC(C5)C3)C4)C2)cc1 (configuration not stated) |
| 191 to 192 | CSc1ncc(CCc2cccnc2)c(=O)[nH]1 |
